Test results reported in US8134015B2, “Compound inhibiting in vivo phosphorous transport and medicine containing the same” (Kyowa Hakko Kirin Co., Ltd., priority 2003, dated 2012).

Target: T1, rat NaPi-2b (Rattus norvegicus, UniProt Q9JJ09)
T1 construct: expressed in transfected cells; host or cells: Xenopus oocytes injected with cRNA
T1 sequence (Q9JJ09 1-695): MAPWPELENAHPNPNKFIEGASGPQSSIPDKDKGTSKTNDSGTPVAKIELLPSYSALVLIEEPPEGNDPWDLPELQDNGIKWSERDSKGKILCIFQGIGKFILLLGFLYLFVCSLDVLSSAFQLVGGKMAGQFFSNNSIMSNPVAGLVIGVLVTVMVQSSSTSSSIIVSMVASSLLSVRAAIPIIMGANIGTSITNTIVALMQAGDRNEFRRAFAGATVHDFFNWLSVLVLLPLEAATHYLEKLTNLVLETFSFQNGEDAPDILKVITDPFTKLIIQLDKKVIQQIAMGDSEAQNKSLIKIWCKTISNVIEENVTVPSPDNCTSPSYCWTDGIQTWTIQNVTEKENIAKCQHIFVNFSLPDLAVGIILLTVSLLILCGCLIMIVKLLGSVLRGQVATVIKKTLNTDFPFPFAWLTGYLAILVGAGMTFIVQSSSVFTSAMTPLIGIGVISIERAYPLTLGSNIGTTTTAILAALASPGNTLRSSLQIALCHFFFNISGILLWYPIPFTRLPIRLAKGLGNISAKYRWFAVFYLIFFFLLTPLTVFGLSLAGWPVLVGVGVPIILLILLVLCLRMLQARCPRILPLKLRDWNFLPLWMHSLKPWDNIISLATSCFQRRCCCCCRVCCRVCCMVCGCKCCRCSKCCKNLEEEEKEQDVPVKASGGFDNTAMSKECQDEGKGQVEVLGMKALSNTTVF
Assay: Sodium-dependent phosphate uptake of Xenopus oocytes which expressed NaPi-2b (32P)
Format: cell-based
Conditions: Xenopus oocytes expressing rat NaPi-2b, 32P radioactive phosphorus; read-out: IC50 (phosphate uptake inhibitory activity)
Method in brief: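 Rat small-intestine NaPi-2b cRNA injected into Xenopus oocytes, expressed for 2 days. Sodium-dependent phosphate uptake measured with 32P; % inhibition at 300 and 100 μM taken from the same inhibition curve.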

| Structure (SMILES) | IC50 [µM] |
| --- | --- |
| CN(CCO)Cc1cccc(C(=O)Nc2ccc(Cl)cc2C(=O)N/N=C/c2ccc(O)cc2)c1 [Compound 403, N-[4-Chloro-2-(4-hydroxy-benzylidene-hydrazinocarbonyl)-phenyl]-3-{[(2-hydroxy-ethyl)-methyl-amino]-methyl}-benzamide] | 26.7 |
| Cc1cccc(/C=N/NC(=O)c2cc(Cl)ccc2NC(=O)c2cccc(CN(CCO)CCO)c2)c1 [Compound 404, 3-{[Bis-(2-hydroxy-ethyl)-amino]-methyl}-N-[4-chloro-2-(3-methyl-benzylidene-hydrazinocarbonyl)-phenyl]-benzamide] | 2.18 |
| Cc1ccc(/C=N/NC(=O)c2cc(Cl)ccc2NC(=O)c2cccc(CN(CCO)CCO)c2)cc1 [Compound 405, 3-{[Bis-(2-hydroxy-ethyl)-amino]-methyl}-N-[4-chloro-2-(4-methyl-benzylidene-hydrazinocarbonyl)-phenyl]-benzamide] | 1.9 |
| Cc1ccc(/C=N/NC(=O)c2cc(Cl)ccc2NC(=O)c2cccc(CN(CCO)CCO)c2)cc1C [Compound 406, 3-{[Bis-(2-hydroxy-ethyl)-amino]-methyl}-N-[4-chloro-2-(3,4-dimethyl-benzylidene-hydrazinocarbonyl)-phenyl]-benzamide] | 0.88 |
| O=C(Nc1ccc(Cl)cc1C(=O)N/N=C/c1ccc(Cl)c(C(F)(F)F)c1)c1cccc(CN(CCO)CCO)c1 [Compound 407, 3-{[Bis-(2-hydroxy-ethyl)-amino]-methyl}-N-[4-chloro-2-(4-chloro-3-trifluoromethyl-benzylidene-hydrazinocarbonyl)-phenyl]-benzamide] | 0.57 |
| COc1cccc(/C=N/NC(=O)c2cc(Cl)ccc2NC(=O)c2cccc(CN(CCO)CCO)c2)c1 [Compound 408, 3-{[Bis-(2-hydroxy-ethyl)-amino]-methyl}-N-[4-chloro-2-(3-methoxy-benzylidene-hydrazinocarbonyl)-phenyl]-benzamide] | 0.69 |
| COc1ccc(/C=N/NC(=O)c2cc(Cl)ccc2NC(=O)c2cccc(CN(CCO)CCO)c2)cc1 [Compound 409, 3-{[Bis-(2-hydroxy-ethyl)-amino]-methyl}-N-[4-chloro-2-(4-methoxy-benzylidene-hydrazinocarbonyl)-phenyl]-benzamide] | 2.52 |
| O=C(Nc1ccc(Cl)cc1C(=O)N/N=C/c1cccc(O)c1)c1cccc(CN(CCO)CCO)c1 [Compound 410, 3-{[Bis-(2-hydroxy-ethyl)-amino]-methyl}-N-[4-chloro-2-(3-hydroxy-benzylidene-hydrazinocarbonyl)-phenyl]-benzamide] | 4.05 |
| O=C(Nc1ccc(Cl)cc1C(=O)N/N=C/c1ccc(O)cc1)c1cccc(CN(CCO)CCO)c1 [Compound 411, 3-{[Bis-(2-hydroxy-ethyl)-amino]-methyl}-N-[4-chloro-2-(4-hydroxy-benzylidene-hydrazinocarbonyl)-phenyl]-benzamide] | 10.1 |
| CN(CCO)Cc1ccc(C(=O)Nc2ccc(Cl)cc2C(=O)N/N=C/c2cccc(F)c2)cc1 [Compound 412, N-[4-Chloro-2-(3-fluoro-benzylidene-hydrazinocarbonyl)-phenyl]-4-{[(2-hydroxy-ethyl)-methyl-amino]-methyl}-benzamide] | 7.96 |
| CN(CCO)Cc1ccc(C(=O)Nc2ccc(Cl)cc2C(=O)N/N=C/c2ccc(F)cc2)cc1 [Compound 413, N-[4-Chloro-2-(4-fluoro-benzylidene-hydrazinocarbonyl)-phenyl]-4-{[(2-hydroxy-ethyl)-methyl-amino]-methyl}-benzamide] | < 3 |
| Cc1cccc(/C=N/NC(=O)c2cc(Cl)ccc2NC(=O)c2ccc(CN(C)CCO)cc2)c1 [Compound 414, N-[4-Chloro-2-(3-methyl-benzylidene-hydrazinocarbonyl)-phenyl]-4-{[(2-hydroxy-ethyl)-methyl-amino]-methyl}-benzamide] | < 3 |
| Cc1ccc(/C=N/NC(=O)c2cc(Cl)ccc2NC(=O)c2ccc(CN(C)CCO)cc2)cc1 [Compound 415, N-[4-Chloro-2-(4-methyl-benzylidene-hydrazinocarbonyl)-phenyl]-4-{[(2-hydroxy-ethyl)-methyl-amino]-methyl}-benzamide] | < 3 |
| Cc1ccc(/C=N/NC(=O)c2cc(Cl)ccc2NC(=O)c2ccc(CN(C)CCO)cc2)cc1C [Compound 416, N-[4-Chloro-2-(3,4-dimethyl-benzylidene-hydrazinocarbonyl)-phenyl]-4-{[(2-hydroxy-ethyl)-methyl-amino]-methyl}-benzamide] | 3.25 |
| CN(CCO)Cc1ccc(C(=O)Nc2ccc(Cl)cc2C(=O)N/N=C/c2ccc(Cl)c(C(F)(F)F)c2)cc1 [Compound 417, N-[4-Chloro-2-(4-chloro-3-trifluoromethyl-benzylidene-hydrazinocarbonyl)-phenyl]-4-{[(2-hydroxy-ethyl)-methyl-amino]-methyl}-benzamide] | < 3 |
| COc1cccc(/C=N/NC(=O)c2cc(Cl)ccc2NC(=O)c2ccc(CN(C)CCO)cc2)c1 [Compound 418, N-[4-Chloro-2-(3-methoxy-benzylidene-hydrazinocarbonyl)-phenyl]-4-{[(2-hydroxy-ethyl)-methyl-amino]-methyl}-benzamide] | 9.38 |
| COc1ccc(/C=N/NC(=O)c2cc(Cl)ccc2NC(=O)c2ccc(CN(C)CCO)cc2)cc1 [Compound 419, N-[4-Chloro-2-(4-methoxy-benzylidene-hydrazinocarbonyl)-phenyl]-4-{[(2-hydroxy-ethyl)-methyl-amino]-methyl}-benzamide] | 9.2 |
| CN(CCO)Cc1ccc(C(=O)Nc2ccc(Cl)cc2C(=O)N/N=C/c2cccc(O)c2)cc1 [Compound 420, N-[4-Chloro-2-(3-hydroxy-benzylidene-hydrazinocarbonyl)-phenyl]-4-{[(2-hydroxy-ethyl)-methyl-amino]-methyl}-benzamide] | 27.1 |
| CN(CCO)Cc1ccc(C(=O)Nc2ccc(Cl)cc2C(=O)N/N=C/c2ccc(O)cc2)cc1 [Compound 421, N-[4-Chloro-2-(4-hydroxy-benzylidene-hydrazinocarbonyl)-phenyl]-4-{[(2-hydroxy-ethyl)-methyl-amino]-methyl}-benzamide] | 29.6 |
| CCN(CCO)Cc1cccc(C(=O)Nc2ccc(Cl)cc2C(=O)N/N=C/c2cccc(F)c2)c1 [Compound 422, N-[4-Chloro-2-(3-fluoro-benzylidene-hydrazinocarbonyl)-phenyl]-3-{[ethyl-(2-hydroxy-ethyl)-amino]-methyl}-benzamide] | 1.15 |
| CCN(CCO)Cc1cccc(C(=O)Nc2ccc(Cl)cc2C(=O)N/N=C/c2ccc(F)cc2)c1 [Compound 423, N-[4-Chloro-2-(4-fluoro-benzylidene-hydrazinocarbonyl)-phenyl]-3-{[ethyl-(2-hydroxy-ethyl)-amino]-methyl}-benzamide] | < 3 |
| CCN(CCO)Cc1cccc(C(=O)Nc2ccc(Cl)cc2C(=O)N/N=C/c2cccc(C)c2)c1 [Compound 424, N-[4-Chloro-2-(3-methyl-benzylidene-hydrazinocarbonyl)-phenyl]-3-{[ethyl-(2-hydroxy-ethyl)-amino]-methyl}-benzamide] | 1.79 |
| CCN(CCO)Cc1cccc(C(=O)Nc2ccc(Cl)cc2C(=O)N/N=C/c2ccc(C)cc2)c1 [Compound 425, N-[4-Chloro-2-(4-methyl-benzylidene-hydrazinocarbonyl)-phenyl]-3-{[ethyl-(2-hydroxy-ethyl)-amino]-methyl}-benzamide] | < 3 |
